Series [1] deals with Staphylococcus aureus ATCC 25923. The series is classed as cell-based. To be noted: for MBC: ATCC 25923, 18 h; for MIC: ATCC 25923, 24 h. The text has this:
(§1) All tests were done in triplicate.

In series [2] the test system is Listeria monocytogenes 10403s. It counts as cell-based. To be noted: for MIC: 24 h.
Text: as §1

For series [3], the system named is Pseudomonas aeruginosa ATCC 27853. The series is classed as cell-based.
Text: as §1

Series [4] relates to Staphylococcus epidermidis ATCC 12228. The series is classed as cell-based. To be noted: for MBC: ATCC 12228, 18 h.
Text: as §1

Series [5] deals with Bacillus cereus ATCC 11778. The series is classed as cell-based.
Text: as §1

Series [6] deals with Acinetobactero baumanii MT strain. It counts as cell-based. To be noted: for MIC: 24 h.
Text: as §1

Series [7] has as its system Salmonella Typhimurium ATCC 13311. The series is classed as cell-based, Salmonella enterica serovar Typhimurium.
Text: as §1

The subject of series [8] is panel of human pathogenic bacterial strains. To be noted: summary over all tested strains of Table 1.
Procedure: Four Gram-negative bacteria including Salmonella enterica serovar Typhimurium (S. Typhimurium) ATCC 13311 and 16 drug-resistant S. enterica isolates (S. Typhimurium and monophasic variant 4,5,12:i:-), and four Gram-positive bacteria (Staphylococcus aureus ATCC 25923, Staphylococcus epidermidis ATCC 12228, Bacillus cereus ATCC 11778, and Listeria monocytogenes 10403s) were used as test microorganisms. […] All bacterial strains were cultured in a proper medium at 37 °C for 18 h (Table 1).
The minimum inhibitory concentration (MIC) of each peptide was evaluated by broth microdilution assay according to a modification described by the National Committee for Clinical Laboratory Standards (NCCLS)[22]. Mid-logarithmic phase bacterial cells were adjusted to an OD620 of 0.05 in Mueller–Hinton broth (MHB), a universal medium for antibacterial susceptibility testing[23]. Then, 50 µl of bacterial solution was incubated with 50 µl of two-fold serially diluted peptide (0.98–250 µg/ml in PBS) at 37 °C for 24 h with continuous shaking. […] The minimal bactericidal concentration (MBC) of each peptide was determined using a colony count assay. Fifty microliter aliquots of the mixture from each non-turbid well (no growth) from the MIC experiment was spread on Tryptic soy agar (TSA) and cultured overnight at 37 °C. […]
For series [9], the system named is all Gram-negative strains. The experiment in a line: Geometric mean of MICs and therapeutic index, Gram-negative strains. It counts as cell-based. To be noted: 4 Gram-negative strains.
Text: as §1

For series [10], the system named is Shigella sonnei ATCC11060. It counts as cell-based. To be noted: triplicate; for MIC: broth microdilution in MHB, 37 °C, 24 h; for MBC: colony count on TSA from non-turbid MIC wells.
Text: as §1
(Dilution methods test growth across graded concentrations, often in twofold steps.)

In series [11] the test system is all Gram-positive strains. The experiment in a line: Geometric mean of MICs and therapeutic index, Gram-positive strains. It counts as cell-based. To be noted: 4 Gram-positive strains.
Text: as §1

The test system of series [12] is L929 mouse fibroblast cells. The experiment in a line: In vitro cytotoxicity, MTT assay. To be noted: 0.98–250 µg/ml, 24 h. It counts as cell-based. On the procedure: The cytotoxicity of A11 was evaluated by the 3-(4,5 dimethylthiazol-2-yl)-2,5-diphenyltetrazolium bromide (MTT) assay. L929 mouse fibroblast cells were cultured in Dulbecco's Modified Eagle Medium (DMEM) supplemented with 1% (v/v) of 100 IU/ml penicillin/streptomycin and 10% (v/v) fetal bovine serum (FBS). The cells were maintained in an air atmosphere containing the 5% CO2 under high humidity at 37 °C. L929 cell lines were seeded into a sterile 96-well plate (1 × 10^4 cells/well) then incubated overnight and treated with different concentrations of A11 (0.98–250 µg/ml) for 24 h. Media were removed, and cultured cells were incubated with 100 µl of MTT solution (4 mg/ml) for 4 h at 37 °C. After removal of MTT solution, the formed formazan was dissolved in 100 µl DMSO. Absorbance was measured by microplate reader at 570 nm; untreated cells served as negative control and melittin-treated cells as a positive control. Cell viability was determined following this equation: Cell viability%=ODTreated/ODControl×100
On the technique in general: Formazan colour is commonly taken as a measure of viable cells.

The mark [13] stands for this setting: broth microdilution in MHB, 37 °C, triplicate.
[14] abbreviates: colony count on TSA from non-turbid MIC wells, triplicate.
The mark [15] stands for this setting: broth microdilution in MHB, 37 °C, 24 h, triplicate.

≈ marks a conversion by molar mass, not a printed value. Like-named read-outs stand apart in the source and are kept apart here. Where no end group is shown, it is not given here. Some results are limits rather than exact numbers.

In the case of “GNPKVAHCASQIGRSTAWGAVSGA-NH2 [A0, acidocin J1132β, reference compound]”, the MBC in [1] is listed as > 250 (> 250) µg/ml; in series [2] (10403s, 18 h) it was > 250 (> 250) µg/ml; in [3] (ATCC 27853, 18 h) it was > 250 (> 250) µg/ml; in series [4], > 250 (> 250) µg/ml; in series [5] (ATCC 11778, 18 h), > 250 (> 250) µg/ml; in series [6] (18 h) it was > 250 (> 250) µg/ml. Besides, in [7] (ATCC 13311, 18 h), the MBC is > 250 (> 250) µg/ml. Also, the MIC in [1] was > 250 (> 250) µg/ml; in [2] (10403s), > 250 (> 250) µg/ml; in series [3] (ATCC 27853, 24 h), > 250 (> 250) µg/ml; in series [4] (ATCC 12228, 24 h) it was > 250 (> 250) µg/ml; in series [5] (ATCC 11778, 24 h) it was > 250 (> 250) µg/ml; in series [6] it was > 250 (> 250) µg/ml. Further, in series [7] (ATCC 13311, 24 h), the MIC is given as > 250 (> 250) µg/ml. In addition, the “MIC over the tested bacteria” value in series [8] was more than 250 µg/mL.

In the case of GVKKVAHKVVKIGRKVAWGAVSGV-NH2 [A4], the MBC in series [1] was > 250 (> 250) µg/ml; in series [2] (10403s, 18 h), 250 (> 250) µg/ml; in series [3] (ATCC 27853, 18 h), 250 (250) µg/ml; in series [4] it was 250 (250) µg/ml; in [5] (ATCC 11778, 18 h) it was > 250 (> 250) µg/ml; in series [6] (18 h), 31.25 µg/mL. Moreover, the MBC in [7] (ATCC 13311, 18 h) is reported as 31.25 (31.25) µg/ml. Also, the MIC is > 250 (> 250) µg/ml in series [1]; 250 (> 250) µg/ml in series [2] (10403s); 250 (250) µg/ml in series [3] (ATCC 27853, 24 h); 250 (250) µg/ml in series [4] (ATCC 12228, 24 h); > 250 (> 250) µg/ml in series [5] (ATCC 11778, 24 h); 15.63 µg/mL in series [6]. In series [7] (ATCC 13311, 24 h), the MIC is given as 31.25 (31.25) µg/ml.

Take `CC[C@H](C)[C@H](NC(=O)CN)C(=O)NCC(=O)N[C@@H](C)C(=O)N[C@H](C(=O)N[C@@H](CC(C)C)C(=O)N[C@@H](CCCCN)C(=O)N[C@H](C(=O)N[C@@H](CC(C)C)C(=O)N[C@H](C(=O)N[C@H](C(=O)NCC(=O)N[C@@H](CC(C)C)C(=O)N1CCC[C@H]1C(=O)N[C@@H](C)C(=O)N[C@@H](CC(C)C)C(=O)N[C@H](C(=O)N[C@@H](CO)C(=O)N[C@@H](Cc1c[nH]c2ccccc12)C(=O)N[C@H](C(=O)N[C@@H](CCCCN)C(=O)N[C@@H](CCCNC(=N)N)C(=O)N[C@@H](CCCCN)C(=O)N[C@@H](CCCNC(=N)N)C(=O)N[C@@H](CCC(N)=O)C(=O)N[C@@H](CCC(N)=O)C(N)=O)[C@@H](C)CC)[C@@H](C)CC)[C@@H](C)O)[C@@H](C)O)C(C)C)C(C)C` [Melittin, reference compound]: in [9], the “GM (Gr.- strains), geometric mean of MIC values from all Gram-negative strains” value was determined as 6.8 µg/mL. Also, the MIC in series [2] (setting [13]) was 3.91 (3.91) µg/ml; in series [3] (setting [15]), 15.63 (15.63) µg/ml; in series [4] (setting [15]), 3.91 (3.91) µg/ml; in series [5] (setting [15]) it was 3.91 µg/mL (≈ 1.37 µM); in series [10] it was 3.91 µg/mL (≈ 1.37 µM); in [6] (setting [13]) it was 7.81 (7.81) µg/ml. Moreover, the MIC in series [7] (broth microdilution in MHB, 37 °C, 24 h, visible inspection, triplicate) is on record as 3.91 (3.91) µg/ml. Also, the MBC in series [2] (setting [14]) is 3.91 (3.91) µg/ml; in series [3] (setting [14]) it was 15.63 (15.63) µg/ml; in series [5] (setting [14]), 7.81 µg/mL (≈ 2.74 µM); in [10], 7.81 µg/mL (≈ 2.74 µM); in [6] (setting [14]), 7.81 (7.81) µg/ml; in series [7] (colony count on TSA from non-turbid MIC wells, overnight 37 °C, triplicate), 3.91 (3.91) µg/ml. Also, the “GM (Gr. + strains), geometric mean of MIC values from all Gram-positive strains” value in series [11] came to 3.91 µg/mL. The “cytotoxicity toward L929 cells (cell viability, MTT)” value in series [12] is reported as “strongly cytotoxic”.

As to GVKKVAHKVVKIGRKVAW-NH2 [A6], the MBC in series [1] was > 250 (> 250) µg/ml; in series [2] (10403s, 18 h) it was 250 (> 250) µg/ml; in series [3] (ATCC 27853, 18 h) it was 250 µg/mL; in series [4] it was > 250 (> 250) µg/ml; in [5] (ATCC 11778, 18 h), > 250 (> 250) µg/ml; in [10], 125 µg/mL. The MBC in series [6] (18 h) is on record as 31.25 (31.25) µg/ml; in [7] (ATCC 13311, 18 h) it was 62.5 (62.5) µg/ml. In addition, the MIC in series [1] was > 250 (> 250) µg/ml; in series [2] (10403s), 250 (> 250) µg/ml; in series [3] (ATCC 27853, 24 h) it was 125 µg/mL; in [4] (ATCC 12228, 24 h), > 250 (> 250) µg/ml; in [5] (ATCC 11778, 24 h), > 250 (> 250) µg/ml; in series [10], 62.5 µg/mL. The MIC in [6] is on record as 31.25 (31.25) µg/ml; in series [7] (ATCC 13311, 24 h) it was 62.5 (62.5) µg/ml.

In the case of GVKKVARKVVKIGRKVAR-NH2 [A9], the MBC in series [1] is > 250 (> 250) µg/ml; in series [2] (10403s, 18 h), 250 (> 250) µg/ml; in series [3] (ATCC 27853, 18 h), 250 (250) µg/ml; in series [4], more than 250 µg/mL; in [5] (ATCC 11778, 18 h) it was > 250 (> 250) µg/ml; in series [6] (18 h) it was 125 µg/mL. Besides, the MBC in [7] (ATCC 13311, 18 h) is given as 62.5 (62.5) µg/ml. For the same compound, the MIC in series [1] is > 250 (> 250) µg/ml; in series [2] (10403s) it was 250 (> 250) µg/ml; in series [3] (ATCC 27853, 24 h), 250 (250) µg/ml; in series [4] (ATCC 12228, 24 h), 62.5 µg/mL; in [5] (ATCC 11778, 24 h), > 250 (> 250) µg/ml; in [7] (ATCC 13311, 24 h) it was 62.5 (62.5) µg/ml.

(Values after article PMC9981719, “A novel designed membrane-active peptide for the control of foodborne Salmonella enterica serovar Typhimurium” (Scientific Reports, 2023).)
